Source: patent publication US20240025891A1 (Celgene Corporation, priority 2020, published 2024)

Each compound was assayed on Onchocerca gutturosa adult male worms (assay: Onchocerciasis in vitro screening model Onchocerca gutturosa (worm motility score and MTT/formazan colorimetry)). Conditions: Onchocerca gutturosa, read-out: O. gutt Act class.
Experimental: Onchocerciasis: In Vitro Screening Model Onchocerca gutturosa
Parasite and cell cultures. Onchocerca gutturosa adult male worms were obtained by dissection from the nuchal ligament connective tissues of naturally infected cattle, from Gambia, W Africa.
The worms were maintained for at least 24 h in culture before use in Eagles Minimum Essential Medium with Earl's Salts (Gibco, UK)+10% heat inactivated new born calf serum (Gibco, UK)+antibiotic cover of 200 units/ml penicillin, 200 μg/ml streptomycin and 0.5 μg/ml amphotericin B (Sigma, UK). Only normally active specimens were used in the test. All cultures and assays were conducted at 37° C. under an atmosphere of 5% CO2 in air.
Drug sensitivity assays. Compound stock solutions were prepared in 100% DMSO unless otherwise indicated and diluted into the medium. Any unused compound stocks were stored at −20° C. Assays were performed in sterile 24-well (2 ml) plates (Falcon, UK).
Worms were then transferred individually to each well of the plate using fine forceps. Worm viability was assessed using 2 parameters: • The measurement of mean worm motility scores on a scale of 0 (immotile) to 10 (maximum) every 24 h, terminating at 120 h, using an Olympus inverted microscope. • The biochemical evaluation of worm viability using MTT/formazan colorimetry. The MTT assay was carried out after the last motility reading (120 h). Single intact worms were placed in each well of a 48-well plate (Falcon, UK) containing 0.5 ml of a solution consisting of 0.5 mg/ml MTT (Sigma UK) in phosphate buffered saline, and then incubated for 30 min at 37° C. The worms were removed, blotted carefully, and individually transferred to separate wells of a 96-well microtiter plate, each containing 200 μl of DMSO to solubilize the formazan. After 1 h the plate was gently agitated to disperse the color evenly and the absorbance value (optical density) of the resulting formazan solution was determined at 490 nm using a multi-well scanning spectrophotometer (Elisa-reader, Dynatech, UK). Inhibition of formazan formation was correlated with worm damage or death.
Primary screen. New compounds were usually tested at 1.25×10^−5 M. Also expressed in μg/ml.
Secondary screen. […] Serial 1 in 4 drug dilutions was carried out to find activity endpoint and EC50 values for motility reduction and inhibition of formazan formation were produced. EC50 values were determined using Excel or Origin V7 scientific graphing and data analysis software.

Structure (SMILES)	IC50
Cc1cccnc1Nc1cc(-c2ccc(OC3CCOCC3)cn2)ns1 [Example 116, N-(3-methylpyridin-2-yl)-3-(5-(tetrahydro-2H-pyran-4-yloxy)pyridin-2-yl)isothiazol-5-amine]	500 to 5000 nM
COc1ccc(-c2cc(Nc3cc(OC(C)C)ccn3)sn2)nc1 [Example 117, N-(4-isopropoxypyridin-2-yl)-3-(5-methoxypyridin-2-yl)isothiazol-5-amine]	500 to 5000 nM
Cc1ccnc(Nc2cc(-c3ncccc3C)ns2)c1 [Example 118, 3-(3-methylpyridin-2-yl)-N-(4-methylpyridin-2-yl)isothiazol-5-amine]	500 to 5000 nM
c1ccc(-c2ccnc(Nc3cc(-c4ccccn4)ns3)c2)cc1 [Example 119, N-(4-phenylpyridin-2-yl)-3-(pyridin-2-yl)isothiazol-5-amine]	500 to 5000 nM
FC(F)(F)c1ccnc(Nc2nc(-c3ccccn3)cs2)c1 [Example 120, 4-(pyridin-2-yl)-N-(4-(trifluoromethyl)pyridin-2-yl)thiazol-2-amine]	< 200 nM
COc1ccnc(Nc2nc(-c3ccccn3)cs2)c1 [Example 121, N-(4-methoxypyridin-2-yl)-4-(pyridin-2-yl)thiazol-2-amine]	200 to 500 nM
Oc1ccc(Nc2nc(-c3ccccn3)cs2)nc1 [Example 122, 6-(4-(pyridin-2-yl)thiazol-2-ylamino) pyridin-3-ol]	500 to 5000 nM
CCc1ccc(Nc2nc(-c3ccccn3)cs2)nc1 [Example 123, N-(5-ethylpyridin-2-yl)-4-(pyridin-2-yl)thiazol-2-amine]	< 200 nM
Cc1cnc(Nc2nc(-c3ccccn3)cs2)c(C)c1 [Example 124, N-(3,5-dimethyl-pyridin-2-yl)-4-(pyridin-2-yl)thiazol-2-amine]	< 200 nM
c1ccc(-c2cccnc2Nc2nc(-c3ccccn3)cs2)cc1 [Example 125, N-(3-phenylpyridin-2-yl)-4-(pyridin-2-yl)thiazol-2-amine]	500 to 5000 nM
c1ccc(-c2ccnc(Nc3nc(-c4ccccn4)cs3)c2)cc1 [Example 126, N-(4-phenylpyridin-2-yl)-4-(pyridin-2-yl)thiazol-2-amine]	< 200 nM
CC(C)c1cnc(Nc2nc(-c3ccccn3)cs2)cc1C(F)(F)F [Example 127, N-(5-isopropyl-4-(trifluoro-methyl)pyridin-2-yl)-4-(pyridin-2-yl)thiazol-2-amine]	500 to 5000 nM
c1ccc(-c2csc(Nc3cc4ccccc4cn3)n2)nc1 [Example 128, N-(isoquinolin-3-yl)-4-(pyridin-2-yl)thiazol-2-amine]	< 200 nM
Cc1cnc(Nc2nc(-c3ccccn3)cs2)cc1C(F)(F)F [Example 129, N-(5-methyl-4-(trifluoro-methyl)pyridin-2-yl)-4-(pyridin-2-yl)thiazol-2-amine]	< 200 nM
CCc1cnc(Nc2nc(-c3ccccn3)cs2)cc1C(F)(F)F [Example 130, N-(5-ethyl-4-(trifluoro-methyl)pyridin-2-yl)-4-(pyridin-2-yl)thiazol-2-amine]	< 200 nM
CN1CCN(c2ccc(Nc3nc(-c4ccccn4)cs3)nc2)CC1 [Example 131, N-(5-(4-methyl-piperazin-1-yl)pyridin-2-yl)-4-(pyridin-2-yl)thiazol-2-amine]	< 200 nM
Cc1ccnc(Nc2nc(-c3ccccn3)c(C)s2)c1 [Example 132, 5-methyl-N-(4-methyl-pyridin-2-yl)-4-(pyridin-2-yl)thiazol-2-amine]	200 to 500 nM
c1ccc(-c2csc(Nc3ccc4cc[nH]c4n3)n2)nc1 [Example 134, 4-(pyridin-2-yl)-N-(1H-pyrrolo [2,3-b]pyridin-6-yl)thiazol-2-amine]	< 200 nM
c1ccc(-c2csc(Nc3ccc4[nH]ccc4n3)n2)nc1 [Example 135, 4-(pyridin-2-yl)-N-(1H-pyrrolo [3,2-b]pyridin-5-yl)thiazol-2-amine]	500 to 5000 nM
c1ccc(-c2csc(Nc3cc4[nH]ccc4cn3)n2)nc1 [Example 136, 4-(pyridin-2-yl)-N-(1H-pyrrolo [3,2-c]pyridin-6-yl)thiazol-2-amine]	< 200 nM
c1ccc(-c2csc(Nc3cc4cc[nH]c4cn3)n2)nc1 [Example 137, 4-(pyridin-2-yl)-N-(1H-pyrrolo [2,3-c]pyridin-5-yl)thiazol-2-amine]	500 to 5000 nM
c1ccc(-c2csc(Nc3ccc(C4CCCC4)cn3)n2)nc1 [Example 138, N-(5-cyclopentyl-pyridin-2-yl)-4-(pyridin-2-yl)thiazol-2-amine]	< 200 nM
NC(=O)c1ccnc(Nc2nc(-c3ccccn3)cs2)c1 [Example 139, 2-(4-(pyridin-2-yl)thiazol-2-ylamino) iso-nicotinamide]	< 200 nM

Structure (SMILES)	IC50
FC(F)(F)c1cc(Nc2nc(-c3ccccn3)cs2)ncc1Br [Example 140, N-(5-bromo-4-(trifluoro-methyl)pyridin-2-yl)-4-(pyridin-2-yl)thiazol-2-amine]	500 to 5000 nM
O=C(NCC(F)(F)F)c1ccnc(Nc2nc(-c3ccccn3)cs2)c1 [Example 141, 2-(4-(pyridin-2-yl)thiazol-2-ylamino)-N-(2,2,2-trifluoroethyl) isonicotinamide]	200 to 500 nM
COCCNC(=O)c1ccnc(Nc2nc(-c3ccccn3)cs2)c1 [Example 142, N-(2-methoxyethyl)-2-(4-(pyridin-2-yl)thiazol-2-ylamino) isonicotinamide]	200 to 500 nM
O=C(c1ccnc(Nc2nc(-c3ccccn3)cs2)c1)N1CCOCC1 [Example 143, morpholino (2-(4-(pyridin-2-yl)thiazol-2-ylamino)pyridin-4-yl)methanone]	200 to 500 nM
O=C(c1ccnc(Nc2nc(-c3ccccn3)cs2)c1)N1CCNCC1 [Example 144, piperazin-1-yl(2-(4-(pyridin-2-yl)thiazol-2-ylamino)pyridin-4-yl)methanone]	200 to 500 nM
O=C(c1ccnc(Nc2nc(-c3ccccn3)cs2)c1)N1CCC(F)(F)CC1 [Example 145, (4,4-difluoro-piperidin-1-yl)(2-(4-(pyridin-2-yl)thiazol-2-ylamino)pyridin-4-yl)methanone]	< 200 nM
CC(C)NC(=O)c1ccnc(Nc2nc(-c3ccccn3)cs2)c1 [Example 146, N-isopropyl-2-(4-(pyridin-2-yl)thiazol-2-ylamino) isonicotinamide]	< 200 nM
O=C(NC1CCCC1)c1ccnc(Nc2nc(-c3ccccn3)cs2)c1 [Example 147, N-cyclopentyl-2-(4-(pyridin-2-yl)thiazol-2-ylamino) isonicotinamide]	< 200 nM
C[C@@H](CO)NC(=O)c1ccnc(Nc2nc(-c3ccccn3)cs2)c1 [Example 148, (S)-N-(1-hydroxy-propan-2-yl)-2-(4-(pyridin-2-yl)thiazol-2-ylamino) isonicotinamide]	200 to 500 nM
O=C1CN(C(=O)c2ccnc(Nc3nc(-c4ccccn4)cs3)c2)CCN1 [Example 149, 4-(2-(4-(pyridin-2-yl)thiazol-2-ylamino)isonicotinoyl) piperazin-2-one]	500 to 5000 nM
O=C(NC1CCC(C(F)(F)F)CC1)c1ccnc(Nc2nc(-c3ccccn3)cs2)c1 (stereo not shown) [Example 150, 2-(4-(pyridin-2-yl)thiazol-2-ylamino)-N-(4-(trifluoromethyl)cyclohexyl) isonicotinamide]	< 200 nM
O=C(NC1CCC(F)(F)CC1)c1ccnc(Nc2nc(-c3ccccn3)cs2)c1 [Example 151, N-(4,4-difluoro-cyclohexyl)-2-(4-(pyridin-2-yl)thiazol-2-ylamino) isonicotinamide]	< 200 nM
O=C(NCCN1CCCC1)c1ccnc(Nc2nc(-c3ccccn3)cs2)c1 [Example 152, 2-(4-(pyridin-2-yl)thiazol-2-ylamino)-N-(2-(pyrrolidin-1-yl)ethyl) isonicotinamide]	200 to 500 nM
O=C(c1ccnc(Nc2nc(-c3ccccn3)cs2)c1)N1CC(F)(F)C1 [Example 153, (3,3-difluoroazetidin-1-yl)(2-(4-(pyridin-2-yl)thiazol-2-ylamino)pyridin-4-yl)methanone]	< 200 nM
O=C(NCCO)c1ccnc(Nc2nc(-c3ccccn3)cs2)c1 [Example 154, N-(2-hydroxyethyl)-2-(4-(pyridin-2-yl)thiazol-2-ylamino) isonicotinamide]	200 to 500 nM
O=C(N1CCN(c2ccc(Nc3nc(-c4ccccn4)cs3)nc2)CC1)C1(C(F)(F)F)CC1 [Example 155, (4-(6-(4-(pyridin-2-yl)thiazol-2-ylamino)pyridin-3-yl)piperazin-1-yl)(1-(trifluoromethyl)cyclopropyl) methanone]	< 200 nM
CC(C)(O)C(=O)N1CCN(c2ccc(Nc3nc(-c4ccccn4)cs3)nc2)CC1 [Example 156, 2-hydroxy-2-methyl-1-(4-(6-(4-(pyridin-2-yl)thiazol-2-ylamino)pyridin-3-yl)piperazin-1-yl)propan-1-one]	< 200 nM
O=C(O)C1CCCN(c2ccc(Nc3nc(-c4ccccn4)cs3)nc2)C1 (stereo not shown) [Example 157, 1-(6-(4-(pyridin-2-yl)thiazol-2-ylamino)pyridin-3-yl)piperidine-3-carboxylic acid]	500 to 5000 nM
CN(C)C(=O)C1CCCN(c2ccc(Nc3nc(-c4ccccn4)cs3)nc2)C1 (stereo not shown) [Example 158, N,N-dimethyl-1-(6-(4-(pyridin-2-yl)thiazol-2-ylamino)pyridin-3-yl)piperidine-3-carboxamide]	< 200 nM
CNC(=O)C1CCCN(c2ccc(Nc3nc(-c4ccccn4)cs3)nc2)C1 (stereo not shown) [Example 159, N-methyl-1-(6-(4-(pyridin-2-yl)thiazol-2-ylamino)pyridin-3-yl)piperidine-3-carboxamide]	200 to 500 nM
O=C(NCC(F)(F)F)C1CCCN(c2ccc(Nc3nc(-c4ccccn4)cs3)nc2)C1 (stereo not shown) [Example 160, 1-(6-(4-(pyridin-2-yl)thiazol-2-ylamino)pyridin-3-yl)-N-(2,2,2-trifluoroethyl) piperidine-3-carboxamide]	< 200 nM
Cn1cc(-c2ccnc(Nc3nc(-c4ccccn4)cs3)c2)cn1 [Example 161, N-(4-(1-methyl-1H-pyrazol-4-yl)pyridin-2-yl)-4-(pyridin-2-yl)thiazol-2-amine]	< 200 nM
Cc1sc(Nc2cc(C(F)(F)F)ccn2)nc1-c1ccccn1 [Example 162, 5-methyl-4-(pyridin-2-yl)-N-(4-(trifluoromethyl)pyridin-2-yl) thiazol-2-amine]	< 200 nM
